From paper PMC6368403, “Identification of a bilirubin receptor that may mediate a component of cholestatic itch” (eLife, 2019)
“And” between values parts separate entries of the source, which are not always exact repeats. Identical values can stand only once.

How the values were obtained:
[1] = target: T1, MRGPRA1 (Mus musculus, UniProt Q91WW5); test: Microscale thermophoresis binding to MRGPRA1; parameters: Transformed binding isotherm (mean of three experiments): unit not given here; settings: MRGPRA1 (Fig 2E)
T1 construct: expressed in transfected cells
T1 sequence (Q91WW5 1-304): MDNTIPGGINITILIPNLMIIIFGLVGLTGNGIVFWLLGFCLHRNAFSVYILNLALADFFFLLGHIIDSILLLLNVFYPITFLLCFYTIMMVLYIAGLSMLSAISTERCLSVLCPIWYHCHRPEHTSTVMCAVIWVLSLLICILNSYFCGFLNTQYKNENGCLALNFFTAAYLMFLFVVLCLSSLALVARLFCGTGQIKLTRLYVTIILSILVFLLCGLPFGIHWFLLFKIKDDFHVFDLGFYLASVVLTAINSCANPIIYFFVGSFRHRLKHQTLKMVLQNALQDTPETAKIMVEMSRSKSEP
Experimental: (§1) Binding isotherms for MRGPRA1, MRGPRX4, and MRGRPC11 towards various ligands were determined by microscale thermophoresis with the NanoTemper monolith NT.115 instrument ([Duhr and Braun, 2006]). Ligands were pre-incubated with 10 µM of the GFP-tagged receptor of interest for 5 min at room temperature in binding buffer (20 mM Tris and 150 mM NaCl at pH 8.8). Receptors were crudely purified as a membrane fraction from cells stably expressing the receptor ([Vasavda et al., 2017]). Haem metabolites were freshly dissolved in 0.1 M NaOH in dim light and then diluted into assay buffer. Lyophilized BAM8-22 was dissolved in binding buffer. The pH of each ligand was evaluated prior to incubation with a receptor. Samples were loaded into NT.115 Hydrophobic-Treated Capillaries from NanoTemper. Microscale thermophoretic experiments were executed using 20% LED power and 15% MST power. KDs were calculated using the law of mass action with data from three independent experiments. Binding between bilirubin and receptors was evaluated purely thermophoretically, whereas binding between BAM8-22 and MRGPRC11 was evaluated by T-Jump. Samples with dramatic deviations in initial fluorescence were excluded.

[2] = target: T1, MRGPRA1; test: Ca2+ imaging and concentration-Ca2+ response (EC50) in HEK293 cells expressing MRGPRA1; format: cell-based; parameters: Ca2+ response: unit not given here; settings: for Ca2+ response (concentration-response curve): MRGPRA1, triplicate wells (Fig 2D); for Ca2+ response: bilirubin, 3 replicate columns
How it was run: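 HEK293 cells stably expressing the mouse or human receptor, loaded with Fura 2-AM 30 min at 37 °C, imaged in HEPES-buffered CIB pH 7.4 (340/380 nm excitation, 510 nm emission). Haem metabolites diluted from DMSO into 20 mM Tris, 150 mM NaCl pH 8.8. EC50 from triplicate dose-responses, repeated 2–4 times.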

[3] = target: T2, MRGPRX4 (Homo sapiens, UniProt Q96LA9); test: Microscale thermophoresis binding to MRGPRX4; parameters: microscale thermophoresis response (binding isotherm), mean: unit not given here; settings: mean of n=3, Fig 2-J
T2 construct: expressed in transfected cells
T2 sequence (Q96LA9 whole entry): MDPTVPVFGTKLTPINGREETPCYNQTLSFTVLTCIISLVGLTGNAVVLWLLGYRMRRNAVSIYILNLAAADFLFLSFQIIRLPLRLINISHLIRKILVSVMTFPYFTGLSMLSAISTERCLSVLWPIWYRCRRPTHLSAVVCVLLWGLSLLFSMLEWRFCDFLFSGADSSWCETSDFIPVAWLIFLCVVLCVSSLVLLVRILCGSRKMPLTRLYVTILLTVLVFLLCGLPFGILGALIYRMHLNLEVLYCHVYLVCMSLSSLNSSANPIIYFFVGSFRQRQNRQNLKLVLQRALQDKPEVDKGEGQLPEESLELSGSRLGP
Experimental: as §1

SMILES: C=CC1=C(C)/C(=C/c2[nH]c(Cc3[nH]c(/C=C4\NC(=O)C(C)=C4C=C)c(C)c3CCC(=O)O)c(CCC(=O)O)c2C)NC1=O [bilirubin, bilirubin IXα]
- Transformed binding isotherm (mean of three experiments) ([1]; [Ligand] 3.05e-8 M): 6.015
- Transformed binding isotherm (mean of three experiments) ([1]; [Ligand] 6.1e-8 M): 5.1124
- Transformed binding isotherm (mean of three experiments) ([1]; [Ligand] 1.221e-7 M): 3.41
- Transformed binding isotherm (mean of three experiments) ([1]; [Ligand] 2.441e-7 M): 3.271
- Transformed binding isotherm (mean of three experiments) ([1]; [Ligand] 4.883e-7 M): -3.226
- Transformed binding isotherm (mean of three experiments) ([1]; [Ligand] 9.766e-7 M): -3.391
- Transformed binding isotherm (mean of three experiments) ([1]; [Ligand] 1.9531e-6 M): 7.109
- Transformed binding isotherm (mean of three experiments) ([1]; [Ligand] 7.8125e-6 M): 1.334
- Transformed binding isotherm (mean of three experiments) ([1]; [Ligand] 1.5625e-5 M): 2.3419
- Transformed binding isotherm (mean of three experiments) ([1]; [Ligand] 3.125e-5 M): 16.9295
- Transformed binding isotherm (mean of three experiments) ([1]; [Ligand] 6.25e-5 M): 43.5974
- Transformed binding isotherm (mean of three experiments) ([1]; [Ligand] 0.000125 M): 64.6366
- Transformed binding isotherm (mean of three experiments) ([1]; [Ligand] 0.00025 M): 80.7081
- Transformed binding isotherm (mean of three experiments) ([1]; [Ligand] 0.0005 M): 102.789
- Transformed binding isotherm (mean of three experiments) ([1]; [Ligand] 0.001 M): 103.048
- Calcium response / activation of MRGPRA1-expressing cells ([2]; 50 µM bilirubin, 30 µM FMRF): exhibited a calcium response
- Ca2+ response (concentration-response curve) ([2]; [Ligand] 3.90625e-6 M): 1.244 (2×) and 1.27
- Ca2+ response (concentration-response curve) ([2]; [Ligand] 7.8125e-6 M): 1.285 and 1.272 and 1.244
- Ca2+ response (concentration-response curve) ([2]; [Ligand] 1.5625e-5 M): 1.239 (2×) and 1.229
- Ca2+ response (concentration-response curve) ([2]; [Ligand] 3.125e-5 M): 1.214 and 1.216 and 1.186
- Ca2+ response (concentration-response curve) ([2]; [Ligand] 6.25e-5 M): 1.236 and 1.293 and 1.259
- Ca2+ response (concentration-response curve) ([2]; [Ligand] 0.000125 M): 1.409 and 1.368 and 1.342
- Ca2+ response (concentration-response curve) ([2]; [Ligand] 0.00025 M): 1.512 and 1.513 and 1.452
- Ca2+ response (concentration-response curve) ([2]; [Ligand] 0.0005 M): 1.582 and 1.563 and 1.522
- Ca2+ response ([2]; [Ligand] (M) -3 (log scale)): 92.1113 and 105.486 and 102.402
- Ca2+ response ([2]; [Ligand] (M) -3.30103 (log scale)): 69.422 and 70.1483 and 63.5847
- Ca2+ response ([2]; [Ligand] (M) -3.60206 (log scale)): 71.8089 and 75.8019 and 75.1545
- Ca2+ response ([2]; [Ligand] (M) -3.90309 (log scale)): 61.2591 and 54.8317 and 55.4389
- Ca2+ response ([2]; [Ligand] (M) -4.20412 (log scale)): 49.8998 and 18.4414 and 32.057
- Ca2+ response ([2]; [Ligand] (M) -4.50515 (log scale)): 6.418 and 7.051 and 1.245
- Ca2+ response ([2]; [Ligand] (M) -4.80618 (log scale)): 27.9538 and 0 (2×)
- Ca2+ response ([2]; [Ligand] (M) -5.10721 (log scale)): 34.8054 and 0 (2×)
- microscale thermophoresis response (binding isotherm), mean ([3]; [Ligand] 3.05e-8 M): 7.584
- microscale thermophoresis response (binding isotherm), mean ([3]; [Ligand] 6.1e-8 M): 6.444
- microscale thermophoresis response (binding isotherm), mean ([3]; [Ligand] 1.221e-7 M): 6.442
- microscale thermophoresis response (binding isotherm), mean ([3]; [Ligand] 2.441e-7 M): 4.051
- microscale thermophoresis response (binding isotherm), mean ([3]; [Ligand] 4.883e-7 M): -2.46
- microscale thermophoresis response (binding isotherm), mean ([3]; [Ligand] 9.766e-7 M): -5.393
- microscale thermophoresis response (binding isotherm), mean ([3]; [Ligand] 1.9531e-6 M): 5.84
- microscale thermophoresis response (binding isotherm), mean ([3]; [Ligand] 3.9063e-6 M): 1.017
- microscale thermophoresis response (binding isotherm), mean ([3]; [Ligand] 7.8125e-6 M): 9.66
- microscale thermophoresis response (binding isotherm), mean ([3]; [Ligand] 1.5625e-5 M): 19.4349
- microscale thermophoresis response (binding isotherm), mean ([3]; [Ligand] 3.125e-5 M): 35.6519
- microscale thermophoresis response (binding isotherm), mean ([3]; [Ligand] 6.25e-5 M): 68.0309
- microscale thermophoresis response (binding isotherm), mean ([3]; [Ligand] 0.000125 M): 97.8035
- microscale thermophoresis response (binding isotherm), mean ([3]; [Ligand] 0.00025 M): 117.52
- microscale thermophoresis response (binding isotherm), mean ([3]; [Ligand] 0.0005 M): 123.698
- microscale thermophoresis response (binding isotherm), mean ([3]; [Ligand] 0.001 M): 119.096
